Experimental data reported in paper PMC11161644, “An effective and rapidly degradable disinfectant from disinfection byproducts” (Nature Communications, 2024).
“And” between values parts separate entries of the source, which are not always exact repeats. Identical values can stand only once.

What was measured:
[1] = Real-time stability testing of 2,6-DCQ (solid form, 2-propanol solution); format: physicochemical; details: for Time remaining stable: room temperature
Protocol: According to the U.S. Food and Drug Administration guidance, 2,6-DCQ in solid form or solution form (using 2-propanol as the solvent, a common ingredient in antiseptic liquids and hand sanitizers) was kept at room temperature (22 ± 1 °C) and 65 ± 5% of relative humidity for stability testing. The concentrations of 2,6-DCQ at different storage times were determined by an Agilent HPLC equipped with a UV detector at 280 nm. A disinfectant product is considered stable for a certain storage time if its concentration remains ≥90% of the initial concentration.

E. coli = test: Fluorescence microscopic analysis of propidium iodide-stained E. coli (membrane integrity); format: cell-based, Escherichia coli; details: with increasing 2,6-DCQ dose
Protocol: The E. coli cells in the control and disinfected samples were pelleted by centrifugation at 8000×g (5 min, 4 °C) and resuspended in 200 μL PBS (0.1 M, pH 7.2). Propidium iodide[54] was added to the cell suspension at a concentration of 75 μM. After propidium iodide staining in darkness for 30 min, the samples were washed twice with PBS and mounted on glass slides. The samples were then examined using a fluorescence microscope (Eclipse Ti, Nikon, Japan). The fluorescence intensity was semi-quantified with ImageJ software (National Institutes of Health, Bethesda, MD).

[2] = Acute oral toxicity, Hodge and Sterner toxicity scale; details: in vivo, rat, inferred from LD10 of ref 49
From the text: The lethal dose 10% (LD 10; the dose at which 10% of the individuals die)

O=C1C=C(Cl)C(=O)C(Cl)=C1 [2,6-DCQ, 2,6-dichlorobenzoquinone]
Time remaining stable ([1]; in 2-propanol): over 7 months | Time remaining stable ([1]; solid form): over 36 months | C/C0 ([1]; solid form, storage time 0 month): 1 | C/C0 ([1]; solid form, storage time 16 month): 1.072 and 1.01 | C/C0 ([1]; solid form, storage time 36 month): 1.029 and 1.0188 | C/C0 ([1]; solution form (2-propanol), storage time 0 month): 1 | C/C0 ([1]; solution form (2-propanol), storage time 2.5 month): 0.9898 | C/C0 ([1]; solution form (2-propanol), storage time 7 month): 0.9151 | C/C0 ([1]; solution form (2-propanol), storage time 10 month): 0.8855 | C/C0 ([1]; solution form (2-propanol), storage time 12.5 month): 0.8301 | Propidium iodide fluorescence intensity relative to control sample (E. coli): 3.5–59.2 times | LD50 [2]: ≥ 1000 mg/kg
